This passage reports IC50 results from US9987255B2, “5,5-bicyclic oxazole orexin receptor antagonists” (Merck Sharp & Dohme Corp., priority 2014, dated 2018).

Experiment [1] concerns the target human orexin-2 receptor (hOX2R) (Homo sapiens (Human), UniProt O43614). Kind of experiment: FLIPR Ca2+ flux assay, orexin-2 receptor. The class given is cell-based. The following applies: CHO cells expressing the receptor; agonist 70 pM Ala-6,12 orexin-A. As to the method:
The utility of the compounds in accordance with the present invention as orexin receptor OX1R and/or OX2R antagonists may be readily determined without undue experimentation by methodology well known in the art, including the “FLIPR Ca^2+ Flux Assay” (Okumura et al., Biochem. Biophys. Res. Comm. 280:976-981, 2001). In a typical experiment the OX1 and OX2 receptor antagonistic activity of the compounds of the present invention was determined in accordance with the following experimental method. For intracellular calcium measurements, Chinese hamster ovary (CHO) cells expressing the rat orexin-1 receptor or the human orexin-2 receptor, are grown in Iscove's modified DMEM containing 2 mM L-glutamine, […], 1% hypoxanthine-thymidine supplement, 100 U/ml penicillin, 100 μg/ml streptomycin and 10% heat-inactivated fetal calf serum (FCS). The cells are seeded at 20,000 cells/well into Becton-Dickinson black 384-well clear bottom sterile plates coated with poly-D-lysine. All reagents were from GIBCO-Invitrogen Corp. The seeded plates are incubated overnight at 37° C. and 5% CO2. Ala-6,12 human orexin-A as the agonist is prepared as a 1 mM stock solution in 1% bovine serum albumin (BSA) and diluted in assay buffer (HBSS containing 20 mM HEPES, 0.1% BSA and 2.5 mM probenecid, pH7.4) for use in the assay at a final concentration of 70 pM. Test compounds are prepared as 10 mM stock solution in DMSO, then diluted in 384-well plates, first in DMSO, then assay buffer. On the day of the assay, cells are washed 3 times with 100 μl assay buffer and then incubated for 60 min (37° C., 5% CO2) in 60 μl assay buffer containing 1 μM Fluo-4AM ester, 0.02% pluronic acid, and 1% BSA. The dye loading solution is then aspirated and cells are washed 3 times with 100 μl assay buffer. 30 μl of that same buffer is left in each well. Within the Fluorescent Imaging Plate Reader (FLIPR, Molecular Devices), test compounds are added to the plate in a volume of 25 μl, incubated for 5 min and finally 25 μl of agonist is added. Fluorescence is measured for each well at 1 second intervals for 5 minutes and the height of each fluorescence peak is compared to the height of the fluorescence peak induced by 70 pM Ala-6,12 orexin-A with buffer in place of antagonist. For each antagonist, IC50 value (the concentration of compound needed to inhibit 50% of the agonist response) is determined. Alternatively, compound potency can be assessed by a radioligand binding assay (described in Bergman et. al. Bioorg. Med. Chem. Lett. 2008, 18, 1425-1430) in which the inhibition constant (Ki) is determined in membranes prepared from CHO cells expressing either the OX1 or OX2 receptor. The intrinsic orexin receptor antagonist activity of a compound which may be used in the present invention may be determined by these assays.

The target of the next experiment is hOX1R (Homo sapiens, UniProt O43613). Description: FLIPR Ca2+ flux assay, orexin-1 receptor. Type of experiment: cell-based. The note with it: CHO cells expressing the receptor; agonist 70 pM Ala-6,12 orexin-A.

Chain of human orexin-2 receptor (hOX2R) (O43614 whole entry): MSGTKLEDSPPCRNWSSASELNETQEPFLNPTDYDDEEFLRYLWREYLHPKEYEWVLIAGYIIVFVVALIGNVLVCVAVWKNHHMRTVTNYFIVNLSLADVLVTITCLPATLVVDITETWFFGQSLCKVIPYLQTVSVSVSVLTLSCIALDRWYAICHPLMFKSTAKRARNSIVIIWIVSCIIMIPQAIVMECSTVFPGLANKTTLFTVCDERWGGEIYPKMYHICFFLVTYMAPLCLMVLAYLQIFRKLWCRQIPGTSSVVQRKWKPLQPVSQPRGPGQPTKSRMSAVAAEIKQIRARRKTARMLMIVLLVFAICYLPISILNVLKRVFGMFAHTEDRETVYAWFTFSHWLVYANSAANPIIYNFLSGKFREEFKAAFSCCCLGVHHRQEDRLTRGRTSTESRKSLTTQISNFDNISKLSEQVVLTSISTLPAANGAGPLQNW

For the molecule `Cc1oc(N2CC3CN(C(=O)c4ccccc4-n4ncnn4)CC3C2)nc1C(C)(C)O` (centres unmarked) [Example 15, 2-{5-methyl-2-[5-{[2-(2H-tetrazol-2-yl)phenyl]carbonyl}hexahydropyrrolo [3,4-c]pyrrol-2(1H)-yl]-1,3-oxazol-4-yl}propan-2-ol], the IC50 was 0.065 µM in experiment [1] and over 10 µM at hOX1R.
The corresponding values for `Cc1oc(N2CC3CN(C(=O)c4ncccc4-n4nccn4)CC3C2)nc1C(C)(C)O` (centres unmarked) [Example 17, 2-{5-methyl-2-[5-{(3-(2H-1,2,3-triazol-2-yl)pyridin-2-yl]carbonyl}hexahydropyrrolo[3,4-c]pyrrol-2(1H)-yl]-1,3-oxazol-4-yl}propan-2-ol] are 0.084 µM and over 10 µM.
The matching figures for `Cc1oc(N2CC3CN(C(=O)c4cccnc4CC(F)(F)F)CC3C2)nc1C(C)(C)O` (centres unmarked) [Example 10]: 0.046 µM and over 10 µM.
The corresponding values for `Cc1oc(N2CC3CN(C(=O)c4cccnc4OCC(F)F)CC3C2)nc1C(C)(C)O` (centres unmarked) [Example 9, 2-{2-[5-{[2-(2,2-difluoroethoxy)pyridin-3-yl]carbonyl}hexahydropyrrolo [3,4-c]pyrrol-2(1H)-yl]-5-methyl-1,3-oxazol-4-yl} propan-2-ol] are 0.312 µM and over 10 µM.
